These results are taken from PMC6829886, “Inhibition of Non-Small Cell Lung Cancer Cells by Oxy210, an Oxysterol-Derivative that Antagonizes TGFβ and Hedgehog Signaling” (Cells, 2019).

For experiment [1], the system named is Gli1 transcriptional activity. As to the kind of experiment: Gli responsive luciferase reporter in NIH3T3-E1 cells over expressing Gli1. The format is cell-based, mouse. Conditions: 10 μM, 72 hrs. As to the method: NIH3T3-E1 cells cultured in 24 well-plates at 90% confluence were transiently transfected with 0.1 μg of Smad response-element reporter (SBE-Luciferase) plasmid (Qiagen), or with 0.1 μg of Gli response-element reporter (pGL3b-8xGli-Luciferase) plasmid, and 10 ng of pSV40-Renilla-Luciferase plasmid (Promega, Madison, WI, USA) with or without co-transfection with 10ng of Gli1 overexpression vector, pSRα-Gli1 using a Lipofectamine LTX Plus transfection reagent, as previously described. Sufu-/- cells cultured in 24 well-plates at 90% confluence were transiently transfected with 0.1μg of pGL3b-8xGli-Luciferase plasmid, and 10 ng of pSV40-Renilla-Luciferase plasmid. 6 hrs after transfection, cells were treated with test agents for 72 h. […] Then the firefly and Renilla luciferase activities were measured using a dual luciferase kit (Promega) and a GloMax-96 Microplate Luminometer (Promega) or a plate reader-SpectraMax iD3 (Molecular Devices, San Jose, CA, USA). […]
Figure 5 Oxy210 acts downstream of Smo. […] After 72 h, RNA was extracted and analyzed by Q-RT-PCR for the expression of Hh target genes Gli1 and Hip, normalized to Oaz1 expression. […] Luciferase activity was measured and normalized to the Renilla luciferase activity. […]
(In general: Reporter assays use an easily measured gene product as a stand-in for the process of interest.)

The target of another experiment is T1, Human TGFBR2 (Homo sapiens, UniProt P37173).
T1 construct: Human TGFBR2 (amino acid 188-end); purchased Eurofins
T1 sequence (P37173 188-567 limits assumed): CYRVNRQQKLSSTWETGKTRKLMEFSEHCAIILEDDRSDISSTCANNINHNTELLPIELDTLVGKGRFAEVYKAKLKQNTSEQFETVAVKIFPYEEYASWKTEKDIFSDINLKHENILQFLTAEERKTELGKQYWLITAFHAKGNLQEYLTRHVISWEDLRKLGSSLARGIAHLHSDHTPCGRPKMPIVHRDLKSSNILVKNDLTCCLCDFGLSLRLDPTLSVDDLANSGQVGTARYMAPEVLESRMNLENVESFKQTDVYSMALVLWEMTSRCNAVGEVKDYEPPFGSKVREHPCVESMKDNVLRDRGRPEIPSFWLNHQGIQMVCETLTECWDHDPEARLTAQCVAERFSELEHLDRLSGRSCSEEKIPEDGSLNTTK
As to the kind of experiment: TGFβ receptor II kinase inhibition assay (Eurofins). The class given is biochemical. Conditions: vs. positive controls Cdk1/2 Inhibitor III and PKR Inhibitor. On the procedure: Effect of Oxy210 on inhibition of TGFβ receptors I and II kinase activity was assessed by Eurofins (Celle-L’Evescault, France). TGFBR1 (h): Human TGFBR1 (amino acid 200 to end) was incubated with 8 mM MOPS pH 7.0, 0.2 mM EDTA, 1 mM MnCl2, 2 mg/mL casein, 10 mM Magnesium acetate and […] (specific activity and concentration as required). The reaction was initiated by the addition of the Mg/ATP mix. After incubation for 40 min at room temperature, the reaction was stopped by the addition of phosphoric acid to a concentration of 0.5%. 10 μL of the reaction was then spotted onto a P30 filtermat and washed four times for 4 min in 0.425% phosphoric acid and once in methanol prior to drying and scintillation counting. TGFBR2 (h): Human TGFBR2 (amino acid 188-end) was incubated with 20 mM Tris/HCl pH 8.5, 0.2 mM EDTA, 0.33 mg/mL MBP, 10 mM Magnesium acetate and [9-33P-ATP] (specific activity and concentration as required). The reaction was initiated by the addition of the Mg/ATP mix. After incubation for 120 min at room temperature, the reaction was stopped by the addition of phosphoric acid to a concentration of 0.5%. […]
Figure 11 Inhibition of TGFβ-induced Smad2/3 phosphorylation and transcriptional activity. […] Luciferase activity was measured and normalized to the Renilla luciferase activity. […]

As for `C[C@]12CC[C@H]3[C@@H](CC=C4C[C@@H](O)CC[C@@]43C)[C@@H]1CC[C@@H]2[C@](C)(O)CCc1cccnc1` [Oxy210, (3S,8S,9S,10R,13S,14S,17S)-17-((R)-2-hydroxy-4-(pyridin-3-yl)butan-2-yl)-10,13-dimethyl-2,3,4,7,8,9,10,11,12,13,14,15,16,17-tetradecahydro-1H-cyclopenta[a]phenanthren-3-ol], in experiment [1], the “transcriptional activity of Gli responsive luciferase reporter trans-activated by exogenous Gli1” value is reported as “significantly inhibited”. In addition, the “inhibitory activity on TβRII in functional kinase assay” value at Human TGFBR2 is given as “did not display significant inhibitory activity”.
